Measured values: the supplement of paper PMC10307832

Tests used:
Assay in all cases: relative viability (nuclei count vs DMSO), 5 days (fraction); higher = more cells survive
Sunitinib + OSI-027 = compound: CCN(CC)CCNC(=O)c1c(C)[nH]c(/C=C2\C(=O)Nc3ccc(F)cc32)c1C [Sunitinib] + COc1cccc2cc(-c3nc([C@H]4CC[C@H](C(=O)O)CC4)n4ncnc(N)c34)[nH]c12 [OSI-027] (partner 0.5 µM)
Summary of the method: (§1)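 Relative viability equals treated-well nuclei counts divided by vehicle-well nuclei counts. Counts came from 4× images of lung cancer cell lines grown in 1536-well plates for 5 days after pin-tool dosing on the day after seeding. Dosing used one drug alone or a fixed anchor-drug dose plus five library-drug doses (not always all listed) in √10 steps, and values are medians of duplicate plates.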

Sunitinib + Linsitinib = compound: CCN(CC)CCNC(=O)c1c(C)[nH]c(/C=C2\C(=O)Nc3ccc(F)cc32)c1C [Sunitinib] + C[C@]1(O)C[C@@H](c2nc(-c3ccc4ccc(-c5ccccc5)nc4c3)c3c(N)nccn32)C1 [Linsitinib] (partner 1 µM)
Summary of the method: as §1

Sunitinib + Luminespib = compound: CCN(CC)CCNC(=O)c1c(C)[nH]c(/C=C2\C(=O)Nc3ccc(F)cc32)c1C [Sunitinib] + CCNC(=O)c1noc(-c2cc(C(C)C)c(O)cc2O)c1-c1ccc(CN2CCOCC2)cc1 [Luminespib] (partner 0.01 µM)
Summary of the method: as §1

Sunitinib + Lapatinib = compound: CCN(CC)CCNC(=O)c1c(C)[nH]c(/C=C2\C(=O)Nc3ccc(F)cc32)c1C [Sunitinib] + CS(=O)(=O)CCNCc1ccc(-c2ccc3ncnc(Nc4ccc(OCc5cccc(F)c5)c(Cl)c4)c3c2)o1 [Lapatinib] (partner 2 µM)
Summary of the method: as §1

| Cell Line | relative viability (Sunitinib + OSI-027; first compound 0.02 µM) | relative viability (Sunitinib + OSI-027; first compound 0.06325 µM) | relative viability (Sunitinib + OSI-027; first compound 0.2 µM) | relative viability (Sunitinib + OSI-027; first compound 0.6325 µM) | relative viability (Sunitinib + OSI-027; first compound 2 µM) | relative viability (Sunitinib + Linsitinib; first compound 0.02 µM) | relative viability (Sunitinib + Linsitinib; first compound 0.06325 µM) | relative viability (Sunitinib + Linsitinib; first compound 0.2 µM) | relative viability (Sunitinib + Linsitinib; first compound 0.6325 µM) | relative viability (Sunitinib + Linsitinib; first compound 2 µM) | relative viability (Sunitinib + Luminespib; first compound 0.02 µM) | relative viability (Sunitinib + Luminespib; first compound 0.06325 µM) | relative viability (Sunitinib + Luminespib; first compound 0.2 µM) | relative viability (Sunitinib + Luminespib; first compound 0.6325 µM) | relative viability (Sunitinib + Luminespib; first compound 2 µM) | relative viability (Sunitinib + Lapatinib; first compound 0.02 µM) | relative viability (Sunitinib + Lapatinib; first compound 0.06325 µM) | relative viability (Sunitinib + Lapatinib; first compound 0.2 µM) | relative viability (Sunitinib + Lapatinib; first compound 0.6325 µM) | relative viability (Sunitinib + Lapatinib; first compound 2 µM) |
| --- | --- | --- | --- | --- | --- | --- | --- | --- | --- | --- | --- | --- | --- | --- | --- | --- | --- | --- | --- | --- |
| HARA | 0.447 | 0.566 | 0.655 | 0.489 | 0.399 | 0.948 | 0.978 | 1.14 | 0.956 | 0.858 | 0.67 | 0.819 | 0.536 | 0.882 | 0.651 | 0.767 | 0.813 | 0.881 | 0.729 | 0.801 |
| H3255 | 0.66 | 0.583 | 0.645 | 0.621 | 0.666 | 0.884 | 1.02 | – | 1.01 | 1.03 | 0.944 | 1.03 | – | 1.05 | 0.952 | 0.231 | 0.313 | 0.227 | 0.259 | 0.236 |
| A-427 | 0.445 | 0.49 | 0.448 | 0.537 | 0.392 | 1.1 | 1.18 | 1.12 | 1.15 | 1.12 | 0.923 | 1.08 | 1.13 | – | 0.903 | 1 | 1.12 | 1.11 | 1.16 | 1.08 |
| NCI-H1944 | 0.365 | 0.437 | 0.514 | 0.513 | 0.409 | 1.12 | 1.18 | 1.28 | 1.25 | 1.16 | 0.738 | 0.722 | 0.752 | 0.769 | 0.638 | 0.648 | 0.932 | 0.997 | 0.849 | 0.964 |
| EMC-BAC-2 | 0.372 | 0.41 | 0.423 | 0.4 | 0.502 | 0.769 | 0.817 | 0.896 | 0.865 | 0.778 | 1.11 | 1.2 | 1.11 | 1.16 | 1.14 | 0.839 | 0.959 | 1.01 | – | 0.891 |
| NCI-H3122 | 0.874 | – | 1.06 | 0.917 | 0.69 | 1.02 | 1.07 | 1.04 | 0.992 | 1.05 | 0.0868 | 0.127 | 0.0866 | 0.0951 | 0.0797 | 0.907 | 0.985 | 1.04 | – | 0.992 |
| EPLC-272H | 0.336 | 0.318 | 0.302 | 0.29 | 0.291 | 1.27 | 1.1 | 1.15 | 1.09 | 0.93 | 0.364 | 0.38 | 0.561 | 0.582 | 0.262 | 0.837 | 1.02 | 1.14 | 0.937 | 0.915 |
| LU99A | 0.289 | 0.297 | 0.287 | 0.329 | 0.317 | 0.455 | 0.574 | 0.602 | 0.652 | 0.474 | 0.281 | 0.254 | 0.281 | 0.221 | 0.299 | 0.869 | 1.12 | 0.925 | 1.14 | 1.01 |
| LXF-289 | 0.759 | 0.964 | 0.863 | 0.913 | 0.961 | 0.947 | 0.978 | 1.02 | 0.988 | – | 0.635 | 0.734 | 0.89 | – | 0.651 | 0.903 | – | 0.948 | 0.984 | – |
| NCI-H1395 | 0.648 | 0.701 | 0.632 | 0.739 | 0.697 | 0.975 | 1.2 | 1.37 | 1.19 | – | 0.72 | 0.375 | 0.723 | 0.706 | 0.602 | 0.947 | 1.17 | 1.07 | 1.16 | 1 |
| NCI-H650 | 0.535 | 0.553 | 0.524 | 0.586 | 0.514 | 0.9 | 0.912 | 1.09 | – | 1.08 | 0.914 | 0.83 | 0.766 | 0.803 | 0.716 | 1.09 | 1.33 | 0.807 | 0.925 | 0.964 |
| 201T | 0.663 | 0.778 | 0.904 | 0.733 | 0.654 | 1 | 0.941 | 1.06 | 1.09 | 1.04 | 1.05 | 1.05 | 1.05 | 1.08 | 1.03 | – | 1.08 | 1.02 | 1.05 | 1.04 |
| NCI-H2170 | 0.746 | 0.687 | 0.802 | 0.737 | 0.576 | – | – | – | – | – | 0.642 | 0.586 | 0.729 | 0.686 | 0.565 | 0.313 | 0.264 | 0.271 | 0.268 | 0.243 |
| NCI-H460 | 0.593 | 0.717 | 0.78 | 0.768 | 0.467 | 0.662 | – | 0.95 | 0.927 | 0.699 | 0.0352 | 0.0388 | 0.0351 | 0.0528 | 0.0318 | 0.85 | – | 1.3 | 1.08 | 0.927 |
| NCI-H1755 | 0.745 | 0.821 | 0.743 | 0.748 | 0.761 | 0.996 | 0.98 | – | 0.979 | 0.941 | 0.435 | 0.497 | 0.499 | 0.441 | 0.334 | 1.04 | 1.08 | 1.09 | 1.07 | 1.02 |
| NCI-H1975 | 0.62 | 0.826 | 0.805 | 0.633 | 0.498 | – | 0.969 | 1.01 | 0.986 | 0.868 | 0.278 | 0.185 | 0.185 | 0.173 | 0.172 | 0.815 | 1.1 | 1.14 | 0.981 | 0.763 |
| NCI-H23 | 0.57 | 0.749 | 0.675 | 0.803 | 0.469 | 0.552 | 0.6 | 0.605 | 0.674 | 0.554 | 0.214 | 0.229 | 0.204 | 0.214 | 0.21 | 1.1 | 1.42 | 1.44 | 1.36 | 1.08 |
